In ChEMBL document CHEMBL1137798, “Evaluation of natural products as inhibitors of human immunodeficiency virus type 1 (HIV-1) reverse transcriptase” (J Nat Prod, 1991):
Where a name gives a salt, the structure may show the parent alone.

The molecules below were run against Human immunodeficiency virus type 1 reverse transcriptase (Human immunodeficiency virus 1, UniProt Q72547). Details: read-out: IC50 (converted).

`COc1cc2c3cc1Oc1cc(ccc1O)C[C@@H]1c4c(cc(OC)c(O)c4Oc4ccc(cc4)C[C@@H]3N(C)CC2)CC[N+]1(C)C` and `COc1cc2c(cc1O)C[C@H]1c3c(cc(O)c(OC)c3-2)CCN1C` [BOLDINE] cannot be ordered by IC50: greater than 310 µM for the first, greater than 611 µM for the second.

`COc1ccc2[nH]c3c(C)c4ccncc4c(C)c3c2c1` and `Cc1c2ccncc2c(C)c2c1[nH]c1ccccc12` [ELLIPTECINE] cannot be ordered by IC50: less than 543 µM for the first, less than 609 µM for the second.

`COc1coc(CO)cc1=O` and `COc1cc2c(OC)c3ccoc3nc2cc1O` cannot be ordered by IC50: greater than 1280 µM for the first, greater than 816 µM for the second.

`C[C@H](O)C1=C[C@@]2(C=C[C@@H]3C(C(=O)O)=CO[C@@H](O[C@@H]4O[C@H](CO)[C@@H](O)[C@H](O)[C@H]4O)[C@@H]32)OC1=O` and `COC(=O)C1=CO[C@@H](O[C@@H]2O[C@H](CO)[C@@H](O)[C@H](O)[C@H]2O)[C@H]2[C@@H]1C=C[C@@]21C=C([C@H](C)OC(=O)/C=C/c2ccc(O)cc2)C(=O)O1` cannot be ordered by IC50: greater than 438 µM for the first, greater than 324 µM for the second.

`C/C=C1/CN(C(C)=O)[C@H]2Cc3c([nH]c4ccccc34)C(=O)C[C@@H]1[C@@H]2C(=O)OC` and `COC(=O)[C@H]1[C@H]2C[C@H]3c4[nH]c5ccccc5c4CCN3C[C@@H]2CC[C@@H]1O` [CORYNANTHEINE] cannot be ordered by IC50: greater than 526 µM for the first, greater than 564 µM for the second.

`COc1ccc2c(c1OC)-c1cc(ccc1O)/C=C\C(=O)O[C@H]1C[C@@H]3CCCCN3[C@H]2C1` and `COc1ccc2c(c1OC)CN1CCc3cc4c(cc3C1=C2)OCO4` [DIHYDROBERBERINE] cannot be ordered by IC50: greater than 460 µM for the first, greater than 593 µM for the second.

`COc1c(O)cc(O)c2c(=O)c(O)c(-c3ccccc3)oc12` and `COc1cc2c(c3c1c(=O)c1ccccc1n3C)C=CC(C)(C)O2` [ACRONINE] cannot be ordered by IC50: greater than 734 µM for the first, greater than 622 µM for the second.

`CC1=C(C)C(=O)O[C@@H]([C@](C)(O)[C@]2(O)CC[C@@]3(O)[C@@H]4C[C@H]5O[C@]56[C@@H](O)C=CC(=O)[C@]6(C)[C@H]4CC[C@]23C)C1` and `C[C@]12CCC(=O)C=C1CC[C@@H]1[C@@H]2CC[C@]2(C)C(=O)CC[C@@H]12` [ANDROSTENEDIONE] cannot be ordered by IC50: greater than 398 µM for the first, greater than 698 µM for the second.

`COc1c2occc2c(CC(O)C(C)(C)O)c2ccc(=O)oc12` (configuration not stated) and `COc1c2ccoc2nc2c(OC(C)=O)cccc12` [ACETYLROBUSRINE] cannot be ordered by IC50: greater than 628 µM for the first, greater than 777 µM for the second.

Going from `CC[C@H]1CN2CCc3cc(OC)c(OC)cc3[C@@H]2C[C@@H]1C[C@H]1NCCc2cc(OC)c(OC)cc21` to `CC[C@H]1CN2CCc3cc(OC)c(OC)cc3[C@@H]2C[C@@H]1CC1=NCCc2cc(OC)c(OC)cc21`, the IC50 falls from greater than 387 µM to 17.3 µM.

`CC[C@@]12CCCN3CC[C@@]4(C(=Nc5c(OC)cccc54)CC1)[C@H]32` and `CC[C@@]12CCCN3CC[C@]4(c5cccc(OC)c5N(C(C)=O)[C@@H]4CC1)[C@H]32` [ASPIDOSPERMINE] cannot be ordered by IC50: greater than 644 µM for the first, greater than 564 µM for the second.

`COc1cc2c(cc1OC)N1C(=O)C[C@]34C=CCN5CC[C@@H]2[C@@H](CC3)C514` and `COc1cc2c(cc1OC)[C@@]13CCN4CC5=CCO[C@H]6CC(=O)N2[C@H]1[C@H]6[C@H]5C[C@H]43` [BRUCINE] cannot be ordered by IC50: greater than 567 µM for the first, greater than 507 µM for the second.

`COc1c2c(c(O)c3ccoc13)C(=O)[C@H]1c3cc4c(cc3OC[C@H]1O2)OCO4` and `CN1Cc2c(ccc3c2OCO3)[C@@H]2[C@H]1c1cc3c(cc1C[C@@H]2O)OCO3` [CHELIDONINE] cannot be ordered by IC50: greater than 523 µM for the first, less than 566 µM for the second.

`COc1cc2c(c3c1/c(=N\N=c1/c4ccccc4n(C)c4c5c(cc(OC)c14)OC(C)(C)C=C5)c1ccccc1n3C)C=CC(C)(C)O2` [ACRONYCINE AZINE] and `COc1cc2c(c3c1c(=O)c1ccccc1n3C)CCC(C)(C)O2` [DIHYDROACRONYCINE] cannot be ordered by IC50: greater than 313 µM for the first, greater than 618 µM for the second.

`CC[C@H]1[C@@H]2C[C@H]3[C@@H]4N(C)c5ccccc5[C@]45C[C@@H]([C@@H]2[C@H]5O)N3[C@@H]1O` [AJMALINE] and `CC[C@@H]1CN2CCc3c([nH]c4ccccc34)[C@@H]2C[C@@H]1/C(=C\OC)C(=O)OC` [CORYNANRHEIDINE] cannot be ordered by IC50: greater than 613 µM for the first, greater than 543 µM for the second.

First: COC(=O)C1=CO[C@@H](C)[C@@H]2Cn3ccc4c5ccccc5nc-4c3C[C@H]12 [ALSTONINE HYDROCHLORIDE]
Second: COC(=O)C1=CO[C@@H](C)[C@@H]2CN3CCc4c([nH]c5ccc(OC)cc45)[C@@H]3C[C@H]12 [ARICINE]
The IC50 of the first is lower: less than 390 µM for the first, greater than 523 µM for the second.

`COC(=O)C1=CCCN(C)C1` [ARECOLINE HYDROBROMIDE] and `CCC1=C[C@@H]2CN3CCc4c([nH]c5ccccc45)[C@](C(=O)OC)(C2)[C@@H]13` [CATHARANTHINE HYDROCHLORIDE] cannot be ordered by IC50: greater than 847 µM for the first, greater than 536 µM for the second.

`CC(=O)N[C@H]1[C@H](O[C@H]2CC[C@]3(C)[C@H]4CC=C5[C@H]6CC(C)(C)CC[C@]6(C(=O)O)CC[C@@]5(C)[C@]4(C)CC[C@H]3C2(C)C)O[C@H](CO)[C@@H](O)[C@@H]1O` [ARIDANIN] and `C=C(C)[C@@H]1CC[C@]2(CO)CC[C@]3(C)[C@H](CC[C@@H]4[C@@]5(C)CC[C@H](O)C(C)(C)[C@@H]5CC[C@]43C)[C@@H]12` [BETULIN] cannot be ordered by IC50: greater than 303 µM for the first, greater than 452 µM for the second.

Going from `COc1ccc2cc3[n+](cc2c1OC)CCc1cc2c(cc1-3)OCO2` [BERBERINE CHLORIDE] to `COc1cc2c(cc1O)-c1cc3ccc(OC)c(OC)c3c[n+]1CC2` [COLUMBAMINE IODIDE], the IC50 falls from 269 µM to 125 µM (2.2-fold).

First: COC(=O)[C@@]12OC[C@]34[C@H]([C@@H](O)[C@@H]1O)[C@@]1(C)CC(=O)C(O)=C(C)[C@@H]1C[C@H]3OC(=O)[C@H](OC(=O)/C=C(\C)C(C)C)[C@@H]24 [BRUCEANTIN]
Second: COc1cccc2c1C(=O)c1c(O)c3c(c(O)c1C2=O)C[C@@](O)(C(C)=O)C[C@@H]3O[C@H]1C[C@H](N)[C@H](O)[C@H](C)O1 [DAUNORUBICIN]
The IC50 of the first is higher: greater than 365 µM for the first, 237 µM for the second.

`CC[C@@]1(O)C(=O)OCc2c1cc1n(c2=O)Cc2cc3ccccc3nc2-1` [CAMPTOTHECIN] and `COC(=O)[C@@H]1[C@@H](OC)[C@H](OC(=O)c2cc(OC)c(OC)c(OC)c2)C=C2CN3CCc4c([nH]c5ccccc45)[C@@H]3C[C@@H]21` [DESERPIDEINE HYDROCHLORIDE] cannot be ordered by IC50: greater than 574 µM for the first, greater than 326 µM for the second.

`COc1ccc2c(c1OC)C[N+]1(C)CCc3cc4c(cc3C1C2)OCO4` (configuration not stated) [CANADINE METHCHLORIDE] and `COc1ccc2c(c[n+](C)c3c4cc5c(cc4ccc23)OCO5)c1OC` [CHELERYTHRINE CHLORIDE] cannot be ordered by IC50: greater than 513 µM for the first, less than 521 µM for the second.

`C[C@H]1/C(=C/C(=O)OCCN(C)C)CC[C@H]2[C@H]1C(=O)C[C@H]1C(C)(C)[C@@H](OS(=O)(=O)O)CC[C@]21C` [CASSAINE SULFATE] and `CC[C@H]1C[C@@H]2CN3CCc4c([nH]c5cc(OC)c(OC)cc45)[C@](C(=O)OC)(C2)[C@H]13` [CONOPHARYNGINE] cannot be ordered by IC50: greater than 412 µM for the first, greater than 502 µM for the second.

`C=C[C@H]1C[N@@]2CC[C@H]1C[C@@H]2[C@@H](O)c1ccnc2ccccc12` [CINCHONINE] and `CC[C@]12CCc3[nH]c4ccccc4c3CCN(C[C@H]3O[C@H]31)C2` [CONOFLORINE] cannot be ordered by IC50: greater than 679 µM for the first, greater than 675 µM for the second.

`COc1cc2c(c(OC)c1OC)-c1ccc(OC)c(=O)cc1[C@@H](NC(C)=O)CC2` [COLCHICINE] and `COC(=O)[C@H]1[C@H]2C[C@@H]3c4[nH]c5ccccc5c4CCN3C[C@H]2C[C@@H](OC(=O)c2cc(OC)c(OC)c(OC)c2)[C@@H]1OC` [DESERPIDINE] cannot be ordered by IC50: greater than 501 µM for the first, greater than 346 µM for the second.

Compared with `O=c1oc2c(O)c(O)cc3c(=O)oc4c(O)c(O)cc1c4c23` [ELLAGIC ACID], `CN[C@@H](C)[C@H](O)c1ccccc1` [EPHEDRINE SULFATE] is higher in IC50: less than 496 µM for the first, greater than 933 µM for the second.
